Experimental data: patent publication US20240139167A1, “LYSOSOME-ASSOCIATED MEMBRANE PROTEIN TARGETING COMPOUNDS AND USES THEREOF” (HADASIT MEDICAL RESEARCH SERVICES AND DEVELOPMENT LTD., priority 2021, published 2024)

Tested on: skin fibroblasts derived from Gsd1a patients
Assay: NAD+/NADH ratio, Sirt1 and p62 expression
Type: cell-based, human
Details: 50 μM, 24 h
Experimental: FIG. 21 includes vertical bar graphs showing skin fibroblasts derived from Gsd1a patients were treated with solvent or 50 μM Compound A for 24 h and analyzed for NAD+/NADH ratio by the Promega kit (left panel) and for Sirt1 (middle panel) and p62 (right panel) expression by western immunoblotting.
NAD+ and NADH are key precursors for the electron transfer chain, TCA cycle, glycolysis, amino acid synthesis, fatty acid synthesis, and nucleotide synthesis. The NAD+/NADH ratio reports the extent of overall catabolism and the balance between glycolysis and OxPhos. The increase in the NAD+/NADH ratio means acceleration of electron flow in the mitochondrial electron transport chain (note, not mitochondrial ATP production) and of glycolysis to better manage metabolic demands. Furthermore, Sirt1 induction, often associated with increased NAD+/NADH ratio, is a well-documented and innovative anti-aging, calorie restriction-mimic and anti-cancer therapeutic strategy (see for example Hyun et al., (2020)). Thus, the results in Gsd1a cells (FIG. 21), showing induction of the NAD+/NADH ratio, as well as Sirt1, indicate that 144DG11 is a promising therapy for a plethora of different metabolic disorders, aging-related complications, and cancer.

## COCCN(Cc1sccc1C)C(=O)c1cc(C)nc(O)c1 [Compound 1]
  NAD+/NADH ratio: induction
  Sirt1 expression: induction
  p62 expression: downmodulated
